Tests used:
[1] = target: T1, human vitamin D binding protein (hDBP) (Homo sapiens, UniProt P02774); assay: Affinity for human vitamin D binding protein; conditions: hDBP 0.18 μM, 4° C. 3 hours; 1,25(OH)2D3 = 100
T1 sequence (P02774 17-474): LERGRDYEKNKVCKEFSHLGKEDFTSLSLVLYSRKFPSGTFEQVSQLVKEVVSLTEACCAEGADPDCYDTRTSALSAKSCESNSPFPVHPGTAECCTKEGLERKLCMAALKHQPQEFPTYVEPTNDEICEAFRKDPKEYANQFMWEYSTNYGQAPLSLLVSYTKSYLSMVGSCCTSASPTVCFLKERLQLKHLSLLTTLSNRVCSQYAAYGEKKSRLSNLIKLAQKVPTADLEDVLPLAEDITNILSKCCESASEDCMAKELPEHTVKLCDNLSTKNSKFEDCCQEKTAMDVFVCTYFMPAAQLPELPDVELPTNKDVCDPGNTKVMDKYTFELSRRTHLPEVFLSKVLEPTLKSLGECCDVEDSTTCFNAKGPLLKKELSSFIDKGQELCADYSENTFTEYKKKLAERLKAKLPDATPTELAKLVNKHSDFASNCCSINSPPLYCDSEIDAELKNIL
Experimental: Binding of 1α,25(OH)2D3 analogues to hDBP was performed at 4° C. […] Phase separation was then obtained by the addition of 0.5 ml of cold dextran-coated charcoal.

NMRI mice = assay: In vivo activity: serum and femur calcium after 7 daily i.p. injections; conditions: for Serum calcium vs. control (%) / femur calcium vs. control (%): 7 days
Experimental: Eight weeks old, male NMRI mice were fed a vitamin D-replete diet (0.2% calcium, 1% phosphate, 2000 U vitamin D/kg; Hope Farms, Woerden, The Netherlands). Groups of six mice were intraperitoneally injected daily during 7 consecutive days with different doses of 1,25(OH)2D3 (0.2 and 0.4 μg/kg/day) or analogues. The control group was injected with vehicle (arachis oil). The average weight of each group of 6 mice was determined at the beginning and at the end of the experiment. The following parameters were evaluated: serum calcium and femur calcium. Serum calcium was measured by a microcolorimetric assay (Sigma, St. Louis, Mo.). Femurs were removed and femur calcium content was measured in HCl-dissolved bone ash (obtained by heating for 24 hours in an oven at 100° C.), using the same technique as for serum calcium. Student's t-tests were carried out to detect significant differences; p<0.05 was accepted as significant. […]

vitamin D receptor (VDR) = target: T2, vitamin D receptor (VDR) (Sus scrofa, UniProt A3RGC1); assay: Affinity for vitamin D receptor: competition with [3H]1α,25(OH)2D3; assay type: binding; conditions: pig intestinal mucosa supernatant, 4° C. 20 hours; 1α,25(OH)2D3 = 100%
T2 construct: high speed supernatant from intestinal mucosa homogenates obtained from normal pigs; from tissue; host or cells: pig intestinal mucosa (high speed supernatant of homogenate)
T2 sequence (A3RGC1 1-427): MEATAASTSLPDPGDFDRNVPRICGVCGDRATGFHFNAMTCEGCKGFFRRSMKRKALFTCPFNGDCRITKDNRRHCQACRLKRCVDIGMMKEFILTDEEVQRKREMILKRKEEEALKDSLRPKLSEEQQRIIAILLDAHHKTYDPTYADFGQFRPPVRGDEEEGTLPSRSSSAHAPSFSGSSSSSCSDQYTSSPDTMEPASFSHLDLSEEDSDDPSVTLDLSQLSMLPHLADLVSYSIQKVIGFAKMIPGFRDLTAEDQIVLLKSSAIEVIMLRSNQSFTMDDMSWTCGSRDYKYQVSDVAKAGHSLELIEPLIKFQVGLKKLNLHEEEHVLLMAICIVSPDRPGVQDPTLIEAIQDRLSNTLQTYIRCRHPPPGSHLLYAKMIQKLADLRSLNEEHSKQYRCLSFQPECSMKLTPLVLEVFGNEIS
Experimental: The methods used herein to evaluate the binding properties of vitamin D analogues are state of the art techniques used for steroid hormone (including vitamin D) binding assays. […] Incubation was performed at 4° C. for 20 hours and phase separation was obtained by addition of dextran-coated charcoal.

[2] = dose 0.2 μg/kg/d i.p., * in cell = P < 0.05
[3] = Table 6, dose 0.4 μg/kg/day, * in cell = p < 0.05
[4] = dose 0.4 μg/kg/d i.p., * in cell = P < 0.05

DBP (relative affinity) [1] | VDR (relative affinity) (vitamin D receptor (VDR)) | Serum calcium vs. control (%) (NMRI mice; [2]) | Serum calcium vs. control (%) (NMRI mice; [4]) | Structure (SMILES) | femur calcium vs. control (%) (NMRI mice; [2]) | femur calcium vs. control (%) (NMRI mice; [4]) | other results
40% | 30% | – | 98% | C=C1/C(=C\C=C\[C@@H]2CC[C@](C)([C@H](C)CCCC(O)(C(F)(F)F)C(F)(F)F)C2(C)C)C[C@@H](O)C[C@@H]1O [(1R,3S)-5-((Z,2E)-3-((1S,3R)-3-((1R)-6,6,6-trifluoro-5-hydroxy-1-methyl-5-(trifluoromethyl)hexyl)-2,2,3-trimethylcyclopentyl)-2-propenylidene)-4-methylenecyclohexane-1,3-diol] | – | 114* % | –
0% | 60% | – | 94% | C=C1/C(=C\C=C\[C@@H]2CC[C@](C)([C@H](C)CC#CC(O)(C(F)(F)F)C(F)(F)F)C2(C)C)C[C@@H](O)C[C@@H]1O [(1R,3S)-5-((Z,2E)-3-((1S,3R)-3-((1R)-6,6,6-trifluoro-5-hydroxy-1-methyl-5-trifluoromethyl-3-hexynyl)-2,2,3-trimethylcyclopentyl)-2-propenylidene)-4-methylenecyclohexane-1,3-diol] | – | 115* % | –
6% | 60% | – | – | C=C1/C(=C\C=C\[C@@H]2CC[C@](C)([C@@H](C)CCCC(O)(C(F)(F)F)C(F)(F)F)C2(C)C)C[C@@H](O)C[C@@H]1O [(1R,3S)-5-((Z,2E)-3-((1S,3R)-3-((1S)-6,6,6-trifluoro-5-hydroxy-1-methyl-5-(trifluoromethyl)hexyl)-2,2,3-trimethylcyclopentyl)-2-propenylidene)-4-methylenecyclohexane-1,3-diol] | – | – | Serum calcium vs. control (%) (NMRI mice; dose 0.05 μg/kg/d i.p.): 106%; femur calcium vs. control (%) (NMRI mice; dose 0.05 μg/kg/d i.p., * in cell = P < 0.05): 112* %

More lines, now with the values behind:

Structure (SMILES) | DBP (relative affinity) [1] | VDR (relative affinity) (vitamin D receptor (VDR)) | Serum calcium vs. control (%) (NMRI mice; [2]) | Serum calcium vs. control (%) (NMRI mice; [4]) | femur calcium vs. control (%) (NMRI mice; [2]) | femur calcium vs. control (%) (NMRI mice; [4]) | other results
C=C1/C(=C\C=C\[C@@H]2CC[C@](C)([C@@H](C)CC[C@@H](O)C(C)C)C2(C)C)C[C@@H](O)C[C@@H]1O [example 20, (1R,3S)-5-((Z,2E)-3-((1S,3R)-3-((1S,4R)-4-hydroxy-1,5-dimethylhexyl)-2,2,3-trimethylcyclopentyl)-2-propenylidene)-4-methylenecyclohexane-1,3-diol] | 4% | 9% | – | – | – | – | Serum calcium vs. control (%) (NMRI mice; dose 10 μg/kg/d i.p.): 99%; femur calcium vs. control (%) (NMRI mice; dose 10 μg/kg/d i.p., * in cell = P < 0.05): 111* %
C=C1/C(=C\C=C\[C@@H]2CC[C@](C)([C@@H](C)CC#CC(O)(C(F)(F)F)C(F)(F)F)C2(C)C)C[C@@H](O)C[C@@H]1O [(1R,3S)-5-((Z,2E)-3-((1S,3R)-3-((1S)-6,6,6-trifluoro-5-hydroxy-1-methyl-5-trifluoromethyl-3-hexynyl)-2,2,3-trimethylcyclopentyl)-2-propenylidene)-4-methylenecyclohexane-1,3-diol] | 2% | 75% | 103% | – | 117* % | – | –
CCC(O)(CC)CCC[C@H](C)[C@@]1(C)CC[C@@H](/C=C/C=C2C[C@@H](O)C[C@H](O)C2)C1(C)C [(1R,3R)-5-((E)-3-((1S,3R)-3-((1S)-5-ethyl-5-hydroxy-1-methylheptyl)-2,2,3-trimethylcyclopentyl)-2-propenylidene)cyclohexane-1,3-diol] | <0.1% | 60% | – | – | – | – | –
C=C1/C(=C\C=C2/CCC[C@]3(C)[C@@H]([C@H](C)CCCC(C)(C)O)CC[C@@H]23)C[C@@H](O)C[C@@H]1O [1,25(OH)2D3, Calcitriol, reference compound] | – | – | 121* % | 136* % | 97% | 94* % | Femur calcium versus control (%) (NMRI mice; Table 6, dose 0.2 μg/kg/day): 97%; Serum calcium versus control (%) (NMRI mice; Table 6, dose 0.2 μg/kg/day, * in cell = p < 0.05): 121* %; Femur calcium versus control (%) (NMRI mice; [3]): 94* %; Serum calcium versus control (%) (NMRI mice; [3]): 136* %
CC(C)[C@H](O)CC[C@H](C)[C@@]1(C)CC[C@@H](/C=C/C=C2C[C@@H](O)C[C@H](O)C2)C1(C)C (stereo in doubt) [example 19, (1R,3R)-5-{(E)-3-[(S)-3-((S)-4-hydroxy-1-(S)-methyl-5-methyl-hexyl)-2,2,3-trimethyl-cyclopentyl]-allylidene}-cyclohexane-1,3-diol] | 4% | 3% | – | – | – | – | Serum calcium vs. control (%) (NMRI mice; dose 5 μg/kg/d i.p.): 100%; femur calcium vs. control (%) (NMRI mice; dose 5 μg/kg/d i.p., * in cell = P < 0.05): 115* %
C=C1/C(=C\C=C\[C@@H]2CC[C@](C)([C@@H](C)CC[C@H](O)C(C)C)C2(C)C)C[C@@H](O)C[C@@H]1O [example 24, (1R,3S)-5-((Z,2E)-3-((1S,3R)-3-((1S,4S)-4-hydroxy-1,5-dimethylhexyl)-2,2,3-trimethylcyclopentyl)-2-propenylidene)-4-methylenecyclohexane-1,3-diol] | 4% | 20% | 98% | – | 112* % | – | –
C=C1/C(=C\C=C\[C@@H]2CC[C@](C)([C@H](C)CC#CC(C)(C)O)C2(C)C)C[C@@H](O)C[C@@H]1O [(1R,3S)-5-((Z,2E)-3-((1S,3R)-3-((1R)-5-hydroxy-1,5-dimethyl-3-hexynyl)-2,2,3-trimethylcyclopentyl)-2-propenylidene)-4-methylenecyclohexane-1,3-diol] | 0% | 60% | – | – | – | – | Serum calcium vs. control (%) (NMRI mice; dose 2 μg/kg/d i.p.): 105%; femur calcium vs. control (%) (NMRI mice; dose 2 μg/kg/d i.p., * in cell = P < 0.05): 113* %
